Reference: patent US20220009976A1, “Peptide Possessing Mesenchymal-Stem-Cell Mobilizing Activity” (StemRIM Inc., priority 2018, published 2022)

System: mesenchymal stem cells
Assay: Solid-phase culture of peripheral blood after administration of HMGB1 peptide 1-44 (earlier experiments of the inventors)
Assay type: in vivo
Conditions: vs peripheral blood after administration of physiological saline
Source text: In addition, the colonies obtained as a result of culturing, on a solid phase, peripheral blood after administration of a peptide consisting of amino acid residues 1-44 of the human HMGB1 protein (hereinafter, HMGB1 peptide 1-44), which has an activity of mobilizing mesenchymal stem cells into peripheral blood, have been confirmed to have adherability to solid phase and self-renewal ability, and to be PDGFRα positive. They have also been confirmed to have a gene expression profile characteristic to mesenchymal stem cells, based on the results of clustering the transcriptome analysis data and performing gene ontology analysis.
Furthermore, it has been confirmed that the number of colonies obtained by solid-phase culture is larger in the peripheral blood after administration of HMGB1 peptide 1-44 than in the peripheral blood after administration of physiological saline.
Therefore, the colonies obtained as a result of culturing peripheral blood on a solid phase are mesenchymal stem cells, and it is considered that an increase in the number of colonies detected in a solid phase culture of peripheral blood indicates an increase in the number of mesenchymal stem cells in the peripheral blood.

HMGB1 peptide 1-44: peptide consisting of amino acid residues 1-44 of the human HMGB1 protein, which has an activity of mobilizing mesenchymal stem cells into peripheral blood (MGKGDPKKPRGKMSSYAFFVQTCREEHKKKHPDASVNFSEFSKK; UniProt P09429 1-44, looked up, fragment)
number of colonies obtained by solid-phase culture of peripheral blood: larger
